Source: patent publication US8993752B2, “Neprilysin inhibitors” (Theravance Biopharma R&D IP, LLC, priority 2011, dated 2015)

These molecules were tested against T1, human NEP (Homo sapiens, UniProt P08473) (assay: In vitro enzyme inhibition assay at human NEP (fluorogenic peptide substrate)). Conditions: recombinant human NEP; substrate Mca-D-Arg-Arg-Leu-Dap-(Dnp)-OH 10 μM; 37° C.; values given as ranges.
T1 construct: purchased R&D Systems, Minneapolis, Minn; 1182-ZN
Format: biochemical
Method: The inhibitory activities of compounds at human and rat neprilysin (EC 3.4.24.11; NEP) and human angiotensin converting enzyme (ACE) were determined using in vitro assays as described below.
Recombinant human NEP and recombinant human ACE were obtained commercially (R&D Systems, Minneapolis, Minn., catalog numbers 1182-ZN and 929-ZN, respectively). The fluorogenic peptide substrate Mca-D-Arg-Arg-Leu-Dap-(Dnp)-OH (Medeiros et al. (1997) Braz. J. Med. Biol. Res. 30:1157-62; Anaspec, San Jose, Calif.) and Abz-Phe-Arg-Lys(Dnp)-Pro-OH (Araujo et al. (2000) Biochemistry 39:8519-8525; Bachem, Torrance, Calif.) were used in the NEP and ACE assays respectively.
The assays were performed in 384-well white opaque plates at 37° C. using the fluorogenic peptide substrates at a concentration of 10 μM in Assay Buffer (NEP: 50 mM HEPES, pH 7.5, 100 mM NaCl, 0.01% polyethylene glycol sorbitan monolaurate (Tween-20), 10 μM ZnSO4; ACE: 50 mM HEPES, pH 7.5, 100 mM NaCl, 0.01% Tween-20, 1 μM ZnSO4).
Test compounds were assayed over the range of concentrations from 10 μM to 20 pM. Test compounds were added to the enzymes and incubated for 30 minute at 37° C. prior to initiating the reaction by the addition of substrate. Reactions were terminated after 20 minutes of incubation at 37° C. by the addition of glacial acetic acid to a final concentration of 3.6% (v/v).
Plates were read on a fluorometer with excitation and emission wavelengths set to 320 nm and 405 nm, respectively Inhibition constants were obtained by nonlinear regression of the data using the equation (GraphPad Software, Inc., San Diego, Calif.): v=v0/[1+(I/K′)] where v is the reaction rate, v0 is the uninhibited reaction rate, I is the inhibitor concentration and K′ is the apparent inhibition constant.
Compounds of the invention were tested in this assay and found to have pKi values at human NEP as follows.

T1 sequence (P08473 whole entry): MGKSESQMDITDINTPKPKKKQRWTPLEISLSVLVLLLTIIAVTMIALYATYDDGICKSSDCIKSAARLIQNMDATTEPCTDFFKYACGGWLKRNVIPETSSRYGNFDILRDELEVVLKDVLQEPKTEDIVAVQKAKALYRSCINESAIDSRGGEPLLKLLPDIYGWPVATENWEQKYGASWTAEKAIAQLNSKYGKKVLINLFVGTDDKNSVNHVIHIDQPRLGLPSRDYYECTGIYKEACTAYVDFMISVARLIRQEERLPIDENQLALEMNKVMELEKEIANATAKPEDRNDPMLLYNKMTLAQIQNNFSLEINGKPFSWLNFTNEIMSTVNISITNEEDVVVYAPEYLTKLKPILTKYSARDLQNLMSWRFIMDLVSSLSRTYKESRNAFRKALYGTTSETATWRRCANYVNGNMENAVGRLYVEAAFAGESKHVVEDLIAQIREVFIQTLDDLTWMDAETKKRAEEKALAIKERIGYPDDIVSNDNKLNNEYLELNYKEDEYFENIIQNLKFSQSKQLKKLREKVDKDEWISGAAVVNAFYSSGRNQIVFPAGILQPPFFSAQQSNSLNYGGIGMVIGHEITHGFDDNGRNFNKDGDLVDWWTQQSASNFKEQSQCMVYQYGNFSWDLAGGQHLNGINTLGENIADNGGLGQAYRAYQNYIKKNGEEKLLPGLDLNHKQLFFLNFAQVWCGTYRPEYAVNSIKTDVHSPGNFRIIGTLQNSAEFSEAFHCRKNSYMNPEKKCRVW

Structure (SMILES) | pKi values at human NEP
CN(C)C(=O)c1cc(C(=O)N[C@H](Cc2ccccc2Cl)[C@@H](O)C(=O)O)n[nH]1 [Example 2-54] | 8.0-8.9

Same assay, conditions: recombinant human NEP; substrate Mca-D-Arg-Arg-Leu-Dap-(Dnp)-OH 10 μM; 37° C.; values given as ranges; read-out: pKi values at human NEP (converted)

Structure (SMILES) | Ki
O=C(N[C@H](Cc1ccccc1Cl)[C@@H](O)C(=O)O)c1cc(C(=O)O)n(Cc2ccc(Br)cc2)n1 [Example 2-41, 2-(4-Bromo-benzyl)-5-[(1R,2R)-2-carboxy-1-(2-chloro-benzyl)-2-hydroxy-ethylcarbamoyl]-2H-pyrazole-3-carboxylic acid] | ≤ 0.001 µM
O=C(N[C@H](Cc1ccccc1Cl)[C@@H](O)C(=O)O)c1cc(C(=O)O)n(Cc2c(F)cc(F)cc2F)n1 [Example 2-42, 5-[(1R,2R)-2-Carboxy-1-(2-chloro-benzyl)-2-hydroxy-ethylcarbamoyl]-2-(2,4,6-trifluoro-benzyl)-2H-pyrazole-3-carboxylic acid] | 0.00126 to 0.01 µM
Cc1cccc(C)c1Cn1nc(C(=O)N[C@H](Cc2ccccc2Cl)[C@@H](O)C(=O)O)cc1C(=O)O [Example 2-43, 5-[(1R,2R)-2-Carboxy-1-(2-chloro-benzyl)-2-hydroxy-ethylcarbamoyl]-2-(2,6-dimethyl-benzyl)-2H-pyrazole-3-carboxylic acid] | 0.00126 to 0.01 µM
O=C(N[C@H](Cc1ccccc1Cl)[C@@H](O)C(=O)O)c1cc(C(=O)O)n(Cc2c(F)cccc2F)n1 [Example 2-44, 5-[(1R,2R)-2-Carboxy-1-(2-chloro-benzyl)-2-hydroxy-ethylcarbamoyl]-2-(2,6-difluoro-benzyl)-2H-pyrazole-3-carboxylic acid] | 0.00126 to 0.01 µM
O=C(N[C@H](Cc1ccccc1Cl)[C@@H](O)C(=O)O)c1cc(C(=O)O)[nH]n1 [Example 2-45, 5-[(1R,2R)-2-Carboxy-1-(2-chloro-benzyl)-2-hydroxy-ethylcarbamoyl]-2H-pyrazole-3-carboxylic acid] | 0.00126 to 0.01 µM
CC(=O)Nc1cccc(-c2cc(C(=O)N[C@H](Cc3ccccc3Cl)[C@@H](O)C(=O)O)n[nH]2)c1 [Example 2-47, (2R,3R)-3-{[5-(3-Acetylamino-phenyl)-1H-pyrazole-3-carbonyl]-amino}-4-(2-chloro-phenyl)-2-hydroxy-butyric acid] | 0.0126 to 0.1 µM
O=C(N[C@H](Cc1ccccc1Cl)[C@@H](O)C(=O)O)c1cc(-c2ccccc2Cl)[nH]n1 [Example 2-48, (2R,3R)-4-(2-Chloro-phenyl)-3-{[5-(2-chloro-phenyl)-1H-pyrazole-3-carbonyl]-amino}-2-hydroxy-butyric acid] | 0.00126 to 0.01 µM
O=C(N[C@H](Cc1ccccc1Cl)[C@@H](O)C(=O)O)c1cc(-c2ccc(-c3ccccc3)cc2)[nH]n1 [Example 2-49, (2R,3R)-3-[(5-Biphenyl-4-yl-1H-pyrazole-3-carbonyl)-amino]-4-(2-chloro-phenyl)-2-hydroxy-butyric acid] | 0.0126 to 0.1 µM
O=C(N[C@H](Cc1ccccc1Cl)[C@@H](O)C(=O)O)c1cc(-c2ccccc2O)[nH]n1 [Example 2-50, (2R,3R)-4-(2-Chloro-phenyl)-2-hydroxy-3-{[5-(2-hydroxy-phenyl)-1H-pyrazole-3-carbonyl]-amino}-butyric acid] | 0.0126 to 0.1 µM
O=C(N[C@H](Cc1ccccc1Cl)[C@@H](O)C(=O)O)c1cc(-c2cnccn2)[nH]n1 [Example 2-51, (2R,3R)-4-(2-Chloro-phenyl)-2-hydroxy-3-[(5-pyrazin-2-yl-1H-pyrazole-3-carbonyl)-amino]-butyric acid] | 0.0126 to 0.1 µM
O=C(N[C@H](Cc1ccccc1Cl)[C@@H](O)C(=O)O)c1cc(-c2ccco2)[nH]n1 [Example 2-52, (2R,3R)-4-(2-Chloro-phenyl)-3-[(5-furan-2-yl-1H-pyrazole-3-carbonyl)-amino]-2-hydroxy-butyric acid] | 0.0126 to 0.1 µM
O=C(N[C@H](Cc1ccccc1Cl)[C@@H](O)C(=O)O)c1cc(-c2ccc3ccccc3c2)[nH]n1 [Example 2-53, (2R,3R)-4-(2-Chloro-phenyl)-2-hydroxy-3-[(5-naphthalen-2-yl-1H-pyrazole-3-carbonyl)-amino]-butyric acid] | 0.0126 to 0.1 µM
O=C(N[C@H](Cc1ccccc1Cl)[C@@H](O)C(=O)O)c1cc(C(=O)N2CCOCC2)[nH]n1 [Example 2-55, (2R,3R)-4-(2-Chloro-phenyl)-2-hydroxy-3-{[5-(morpholine-4-carbonyl)-1H-pyrazole-3-carbonyl]-amino}-butyric acid] | 0.0126 to 0.1 µM
CC(C)CN(C)C(=O)c1cc(C(=O)N[C@H](Cc2ccccc2Cl)[C@@H](O)C(=O)O)n[nH]1 [Example 2-56, (2R,3R)-4-(2-Chloro-phenyl)-2-hydroxy-3-{[5-(isobutyl-methyl-carbamoyl)-1H-pyrazole-3-carbonyl]-amino}-butyric acid] | 0.0126 to 0.1 µM
O=C(N[C@H](Cc1ccccc1Cl)[C@@H](O)C(=O)O)c1cc(NC(=O)c2ccccc2Cl)[nH]n1 [Example 2-57, (2R,3R)-3-{[5-(2-Chloro-benzoylamino)-1H-pyrazole-3-carbonyl]-amino}-4-(2-chloro-phenyl)-2-hydroxy-butyric acid] | 0.0126 to 0.1 µM
Cn1nc(C(=O)N[C@H](Cc2ccccc2Cl)[C@@H](O)C(=O)O)cc1-c1ccccc1 [Example 2-58, (2R,3R)-4-(2-Chloro-phenyl)-2-hydroxy-3-[(1-methyl-5-phenyl-1H-pyrazole-3-carbonyl)-amino]-butyric acid] | 0.0126 to 0.1 µM
O=C(N[C@H](Cc1ccccc1Cl)[C@@H](O)C(=O)O)c1cc(C(=O)O)n(CCc2ccccc2)n1 [Example 2-59, 5-[(1R,2R)-2-Carboxy-1-(2-chloro-benzyl)-2-hydroxy-ethylcarbamoyl]-2-phenethyl-2H-pyrazole-3-carboxylic acid] | 0.0126 to 0.1 µM
CC(c1ccccc1)n1nc(C(=O)N[C@H](Cc2ccccc2Cl)[C@@H](O)C(=O)O)cc1C(=O)O (stereo partly drawn) [Example 2-60, 5-[(1R,2R)-2-Carboxy-1-(2-chloro-benzyl)-2-hydroxy-ethylcarbamoyl]-2-(1-phenyl-ethyl)-2H-pyrazole-3-carboxylic acid] | 0.0126 to 0.1 µM
Cc1cc(Cn2nc(C(=O)N[C@H](Cc3ccccc3Cl)[C@@H](O)C(=O)O)cc2C(=O)O)no1 [Example 2-61, 5-[(1R,2R)-2-Carboxy-1-(2-chloro-benzyl)-2-hydroxy-ethylcarbamoyl]-2-(5-methyl-isoxazol-3-ylmethyl)-2H-pyrazole-3-carboxylic acid] | 0.00126 to 0.01 µM
CCOc1ncc(Cn2nc(C(=O)N[C@H](Cc3ccccc3Cl)[C@@H](O)C(=O)O)cc2C(=O)O)cn1 [Example 2-62, 5-[(1R,2R)-2-Carboxy-1-(2-chloro-benzyl)-2-hydroxy-ethylcarbamoyl]-2-(2-ethoxy-pyrimidin-5-ylmethyl)-2H-pyrazole-3-carboxylic acid] | ≤ 0.001 µM
O=C(N[C@H](Cc1ccccc1Cl)[C@@H](O)C(=O)O)c1cc(-c2ccccc2Cl)n(-c2ccc(Cl)c(Cl)c2)n1 [Example 2-63, (2R,3R)-4-(2-Chloro-phenyl)-3-{[5-(2-chloro-phenyl)-1-(3,4-dichloro-phenyl)-1H-pyrazole-3-carbonyl]-amino}-2-hydroxy-butyric acid] | 0.0126 to 0.1 µM
O=C(N[C@H](Cc1ccccc1Cl)[C@@H](O)C(=O)O)c1cc(-c2ccccc2Cl)n(-c2ccc(Cl)cc2Cl)n1 [Example 2-64, (2R,3R)-4-(2-Chloro-phenyl)-3-{[5-(2-chloro-phenyl)-1-(2,4-dichloro-phenyl)-1H-pyrazole-3-carbonyl]-amino}-2-hydroxy-butyric acid] | 0.0126 to 0.1 µM
COc1ccc(Cn2ccc(C(=O)N[C@H](Cc3ccccc3Cl)[C@@H](O)C(=O)O)n2)c(F)c1F [Example 2-65, (2R,3R)-4-(2-Chloro-phenyl)-3-{[1-(2,3-difluoro-4-methoxy-benzyl)-1H-pyrazole-3-carbonyl]-amino}-2-hydroxy-butyric acid] | 0.00126 to 0.01 µM
COc1ccc(Cn2ccc(C(=O)N[C@H](Cc3ccccc3Cl)[C@@H](O)C(=O)O)n2)c(F)c1 [Example 2-66, (2R,3R)-4-(2-Chloro-phenyl)-3-{[1-(2-fluoro-4-methoxy-benzyl)-1H-pyrazole-3-carbonyl]-amino}-2-hydroxy-butyric acid] | 0.00126 to 0.01 µM
O=C(N[C@H](Cc1ccccc1Cl)[C@@H](O)C(=O)O)c1cc(O)n(Cc2ccc(Cl)cc2F)n1 [Example 2-67, (2R,3R)-3-{[1-(4-Chloro-2-fluoro-benzyl)-5-hydroxy-1H-pyrazole-3-carbonyl]-amino}-4-(2-chloro-phenyl)-2-hydroxy-butyric acid] | 0.0126 to 0.1 µM
COc1ccc(Cn2nc(C(=O)N[C@H](Cc3ccccc3Cl)[C@@H](O)C(=O)O)cc2O)c(F)c1F [Example 2-68, (2R,3R)-4-(2-Chloro-phenyl)-3-{[1-(2,3-difluoro-4-methoxy-benzyl)-5-hydroxy-1H-pyrazole-3-carbonyl]-amino}-2-hydroxy-butyric acid] | 0.0126 to 0.1 µM
